Experimental data from the supplement of paper PMC8612539.
In brackets after ≈: the same amount, converted by molar mass.

Tested on: Pasteurella multocida
Experiment: minimum inhibitory concentration (MIC)
Method: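 Broth microdilution MIC (Sensititre BOPO7F bovine plate, CLSI methods) of 19 antimicrobials against field isolates of P. multocida, M. haemolytica, H. somni (deep nasopharyngeal swabs) and E. coli, Enterococcus spp. (rectal swabs) from weaned dairy heifers. Incubation 16-24 h at 35 C. MIC is the lowest concentration preventing visible growth. Values with <= or > lie at the tested range limits. Trimethoprim-sulfamethoxazole is given as the trimethoprim component of a 1:19 mixture.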

CS(=O)(=O)c1ccc([C@@H](O)[C@@H](CF)NC(=O)C(Cl)Cl)cc1 [Florfenicol]
Conditions | minimum inhibitory concentration [µg/mL]
isolate (source animal id): 10 | 8 (≈ 22.3 µM)
isolate (source animal id): 11 | 8 (≈ 22.3 µM)
isolate (source animal id): 12 | 8 (≈ 22.3 µM)
isolate (source animal id): 19 | 8 (≈ 22.3 µM)
isolate (source animal id): 23 | 8 (≈ 22.3 µM)
isolate (source animal id): 26 | 8 (≈ 22.3 µM)
isolate (source animal id): 98 | 8 (≈ 22.3 µM)
isolate (source animal id): 104 | 0.5 (≈ 1.4 µM)
isolate (source animal id): 115 | 8 (≈ 22.3 µM)
isolate (source animal id): 117 | 0.5 (≈ 1.4 µM)
isolate (source animal id): 118 | 8 (≈ 22.3 µM)
isolate (source animal id): 121 | 8 (≈ 22.3 µM)
isolate (source animal id): 124 | 1 (≈ 2.79 µM)
isolate (source animal id): 125 | 8 (≈ 22.3 µM)
isolate (source animal id): 128 | 8 (≈ 22.3 µM)
isolate (source animal id): 131 | > 8
isolate (source animal id): 135 | > 8
isolate (source animal id): 136 | 8 (≈ 22.3 µM)
isolate (source animal id): 140 | 0.5 (≈ 1.4 µM)
isolate (source animal id): 144 | 8 (≈ 22.3 µM)
isolate (source animal id): 146 | 8 (≈ 22.3 µM)
isolate (source animal id): 150 | 8 (≈ 22.3 µM)
isolate (source animal id): 151 | 8 (≈ 22.3 µM)
isolate (source animal id): 153 | 8 (≈ 22.3 µM)
isolate (source animal id): 155 | 0.5 (≈ 1.4 µM)
isolate (source animal id): 157 | 8 (≈ 22.3 µM)
isolate (source animal id): 160 | 8 (≈ 22.3 µM)
isolate (source animal id): 164 | 8 (≈ 22.3 µM)
isolate (source animal id): 165 | 8 (≈ 22.3 µM)
isolate (source animal id): 167 | 0.5 (≈ 1.4 µM)
isolate (source animal id): 168 | 1 (≈ 2.79 µM)
isolate (source animal id): 169 | 0.5 (≈ 1.4 µM)
isolate (source animal id): 170 | > 8
isolate (source animal id): 171 | 0.5 (≈ 1.4 µM)
isolate (source animal id): 172 | 0.5 (≈ 1.4 µM)
isolate (source animal id): 173 | 1 (≈ 2.79 µM)
isolate (source animal id): 174 | 0.5 (≈ 1.4 µM)
isolate (source animal id): 175 | 0.5 (≈ 1.4 µM)
isolate (source animal id): 176 | 0.5 (≈ 1.4 µM)
isolate (source animal id): 177 | 0.5 (≈ 1.4 µM)
isolate (source animal id): 178 | 0.5 (≈ 1.4 µM)
isolate (source animal id): 179 | 0.5 (≈ 1.4 µM)
isolate (source animal id): 182 | 0.5 (≈ 1.4 µM)
isolate (source animal id): 192 | 0.5 (≈ 1.4 µM)
isolate (source animal id): 193 | 0.5 (≈ 1.4 µM)
isolate (source animal id): 195 | 0.5 (≈ 1.4 µM)
isolate (source animal id): 196 | 0.5 (≈ 1.4 µM)
isolate (source animal id): 197 | 0.5 (≈ 1.4 µM)
isolate (source animal id): 198 | 1 (≈ 2.79 µM)
isolate (source animal id): 199 | 0.5 (≈ 1.4 µM)
isolate (source animal id): 200 | 0.5 (≈ 1.4 µM)
isolate (source animal id): 201 | 0.5 (≈ 1.4 µM)
isolate (source animal id): 203 | 0.5 (≈ 1.4 µM)
isolate (source animal id): 204 | 0.5 (≈ 1.4 µM)
isolate (source animal id): 205 | 1 (≈ 2.79 µM)
isolate (source animal id): 206 | 0.5 (≈ 1.4 µM)
isolate (source animal id): 207 | 0.5 (≈ 1.4 µM)
isolate (source animal id): 208 | 0.5 (≈ 1.4 µM)
isolate (source animal id): 209 | 0.5 (≈ 1.4 µM)
isolate (source animal id): 210 | 1 (≈ 2.79 µM)
isolate (source animal id): 213 | 0.5 (≈ 1.4 µM)
isolate (source animal id): 216 | 0.5 (≈ 1.4 µM)
isolate (source animal id): 223 | 1 (≈ 2.79 µM)
isolate (source animal id): 227 | 0.5 (≈ 1.4 µM)
isolate (source animal id): 229 | 8 (≈ 22.3 µM)
isolate (source animal id): 233 | 0.5 (≈ 1.4 µM)
isolate (source animal id): 234 | 8 (≈ 22.3 µM)
isolate (source animal id): 237 | 8 (≈ 22.3 µM)
isolate (source animal id): 241 | 8 (≈ 22.3 µM)
isolate (source animal id): 245 | 0.5 (≈ 1.4 µM)
isolate (source animal id): 247 | 0.5 (≈ 1.4 µM)
isolate (source animal id): 250 | 8 (≈ 22.3 µM)
isolate (source animal id): 254 | > 8
isolate (source animal id): 255 | 4 (≈ 11.2 µM)
isolate (source animal id): 258 | 0.5 (≈ 1.4 µM)
isolate (source animal id): 261 | 8 (≈ 22.3 µM)
isolate (source animal id): 262 | > 8
isolate (source animal id): 269 | 0.5 (≈ 1.4 µM)
isolate (source animal id): 270 | 8 (≈ 22.3 µM)
isolate (source animal id): 274 | > 8
isolate (source animal id): 275 | > 8
isolate (source animal id): 276 | 0.5 (≈ 1.4 µM)
isolate (source animal id): 277 | 0.5 (≈ 1.4 µM)
isolate (source animal id): 278 | > 8
isolate (source animal id): 279 | 1 (≈ 2.79 µM)
isolate (source animal id): 280 | 0.5 (≈ 1.4 µM)
isolate (source animal id): 284 | 8 (≈ 22.3 µM)
isolate (source animal id): 285 | > 8
isolate (source animal id): 287 | > 8
isolate (source animal id): 290 | > 8
isolate (source animal id): 294 | > 8
isolate (source animal id): 295 | 8 (≈ 22.3 µM)
isolate (source animal id): 296 | 0.5 (≈ 1.4 µM)
isolate (source animal id): 307 | > 8
isolate (source animal id): 310 | > 8
isolate (source animal id): 311 | 8 (≈ 22.3 µM)
isolate (source animal id): 312 | 8 (≈ 22.3 µM)
isolate (source animal id): 313 | > 8
isolate (source animal id): 315 | > 8
isolate (source animal id): 316 | > 8
